Assay results taken from ChEMBL document CHEMBL1128082, “Inhibition of an HIV-1 Tat-derived peptide binding to TAR RNA by aminoglycoside antibiotics” (Bioorg Med Chem Lett, 1995).

Target: Nucleic Acid
Assay: Concentration required for the inhibition of HIV- 1 Tat-derived peptide binding to TAR RNA.
Format: nucleic-acid assay

Row | IC50 | Compound
1 | 9.5 µM | CN[C@@H]1[C@H](O[C@H]2[C@H](O[C@H]3[C@H](O)[C@@H](O)[C@H](N=C(N)N)[C@@H](O)[C@@H]3N=C(N)N)O[C@@H](C)[C@]2(O)C=O)O[C@@H](CO)[C@H](O)[C@H]1O [STREPTOMYCIN]
2 | 0.92 µM | NC[C@@H]1O[C@H](O[C@H]2[C@@H](O)[C@H](O[C@@H]3[C@@H](O)[C@H](N)C[C@H](N)[C@H]3O[C@H]3O[C@H](CN)[C@@H](O)[C@H](O)[C@H]3N)O[C@@H]2CO)[C@H](N)[C@@H](O)[C@@H]1O [FRAMYCETIN]

Row | Compound | IC50
3 | GENTAMICIN | 45 µM
